Experimental data taken from US7291486B2, “Genetically modified cells and methods for converting (R)-methylmalonyl CoA to (S)-methylmalonyl CoA” (KOSAN Biosciences, Inc., priority 1999, dated 2007).

Assays:
[1] = Stability of acyl-CoAs in TCA and mutase assay buffer (HPLC); type: physicochemical; conditions: mutase assay conditions, 30° C.
Procedure: To test whether acyl-CoAs degrade in TCA, the following tests were conducted. The CoA mix consisted of 1.6 mM each of malonyl-, methylmalonyl-, succinyl-, acetyl-, and propionyl-CoA, plus 0.5 mM CoA. An aliquot (10 μL) of this mix was added to 100 μL 10% TCA, 50 μL were immediately injected to the HPLC for CoA analysis, and the remainder was promptly frozen on dry ice. The frozen portion was then thawed and loaded immediately to the HPLC. Again, 10 μL of the CoA mix were added to 100 μL 10% TCA, 50 μL were left on ice for 15 minutes and then injected to the HPLC, the remainder was left at 4° C. overnight and injected to the HPLC the next morning. The area under each CoA peak was noted. This same procedure was followed but using a mixture of TCA and buffer A from the mutase assay.
The CoA analysis described here is carried out on cells which are lysed in 10% TCA. […] Thus, the CoAs are stable in TCA and in the mutase assay buffer after the cells are lysed or after the assays are completed, and prior to HPLC analysis.
Although the CoAs are stable in TCA and buffer at 4° C., they degraded at 30° C., the temperature at which the mutase assay was performed. In five minutes under the assay conditions, about 4% of the methylmalonyl-CoA hydrolyzed to CoA. […] Thus, the mutase assay is suboptimal for extremely quantitative results.

[2] = Spontaneous chemical epimerization between (R)- and (S)-mm-CoA; type: physicochemical; conditions: in 15 minutes
[3] = Epimerase assay coupled to transcarboxylase and malate dehydrogenase, crude E. coli extracts; type: biochemical; conditions: 30° C.
Procedure: Cells of strain BL2] (DE3) containing pET-epsherm, pET-epcoel, pET-epsub, or a control pET vector were grown overnight at 37° C. in 2 mL LB containing 100 μg/ml carbenicillin. The starter culture (250 μL) was used to inoculate 25 mL LB containing 100 μg/ml carbenicillin. The cultures were grown at 37° C. to an OD of approximately 0.4, then induced with IPTG to 1 mM final concentration and grown for an additional 3 hours at 30° C. The cells were collected by centrifugation at 4000 rpm for 10 minutes, and the pellets were stored at −80° C. prior to assay. […]
Epimerase activity was measured in crude extracts of E. coli harboring either pET-epsherm, pET-epcoel, pET-epsub, or a control pET vector. The epimerase assay couples transcarboxylase, which converts (S)-methylmalonyl-CoA into propionyl-CoA, to malate dehydrogenase, which converts NADH into NAD^+, producing a decrease in absorbance at 340 nm. […] When an extract containing epimerase is added to the assay, the (R)-isomer is converted to (S)—, resulting in a further decrease in absorbance. […]
The pellet from approximately 20 mL of culture was thawed and resuspended in 2 mL 1X assay buffer containing a protease inhibitor cocktail tablet. […] The reaction was initiated with (2R,2S)-methylmalonyl-CoA and the decrease in absorbance at 340 nm was monitored, reflecting the disappearance of the 2S isomer. […]

## CC(C(=O)O)C(=O)SCCNC(=O)CCNC(=O)[C@H](O)C(C)(C)COP(=O)(O)OP(=O)(O)OC[C@H]1O[C@@H](n2cnc3c(N)ncnc32)[C@H](O)[C@@H]1OP(=O)(O)O (stereo partly shown) [methylmalonyl-CoA]
[1]; five minutes
  hydrolyzed to CoA: about 4%
[2]
  spontaneous chemical epimerization between (R)- and (S)-mm-CoA: approximately 3%

## CC(C)(COP(=O)(O)OP(=O)(O)OC[C@H]1O[C@@H](n2cnc3c(N)ncnc32)[C@H](O)[C@@H]1OP(=O)(O)O)[C@@H](O)C(=O)NCCC(=O)NCCSC(=O)CCC(=O)O [succinyl-CoA]
[1]
  rate of hydrolysis relative to methylmalonyl-CoA: comparable rate

B1: P. shermanii epimerase: methylmalonyl-CoA epimerase from Propionibacterium shermanii expressed in E. coli, SEQ ID NO: 2 (protein)
chain: MSNEDLFICIDHVAYACPDADEASKYYQETFGWHELHREENPEQGVVEIMMAPAAKLTEHMTQVQVMAPLNDESTVAKWLAKHNGRAGLHHMAWRVDDIDAVSATLRERGVQLLYDEPKLGTGGNRINFMHPKSGKGVLIELTQYPKN
modifications: Deduced amino acid sequence of the epimerase gene sequence
[3]
  specific activity: approximately 30 units/mg
